Experimental data: article PMC6768109, “A novel assay for measuring recombinant human lysophosphatidylcholine acyltransferase 3 activity” (FEBS Open Bio, 2019)

T1: recombinant human lysophosphatidylcholine acyltransferase 3 (rhLPCAT3) (Homo sapiens, UniProt Q6P1A2)
T1 construct: gene LPCAT3; human LPCAT3 (BC065194.1) with HRV 3C site and C-terminal Twin-strep-tag, expressed in Sf9 cells, purified in DDM
T1 sequence (Q6P1A2 2-487): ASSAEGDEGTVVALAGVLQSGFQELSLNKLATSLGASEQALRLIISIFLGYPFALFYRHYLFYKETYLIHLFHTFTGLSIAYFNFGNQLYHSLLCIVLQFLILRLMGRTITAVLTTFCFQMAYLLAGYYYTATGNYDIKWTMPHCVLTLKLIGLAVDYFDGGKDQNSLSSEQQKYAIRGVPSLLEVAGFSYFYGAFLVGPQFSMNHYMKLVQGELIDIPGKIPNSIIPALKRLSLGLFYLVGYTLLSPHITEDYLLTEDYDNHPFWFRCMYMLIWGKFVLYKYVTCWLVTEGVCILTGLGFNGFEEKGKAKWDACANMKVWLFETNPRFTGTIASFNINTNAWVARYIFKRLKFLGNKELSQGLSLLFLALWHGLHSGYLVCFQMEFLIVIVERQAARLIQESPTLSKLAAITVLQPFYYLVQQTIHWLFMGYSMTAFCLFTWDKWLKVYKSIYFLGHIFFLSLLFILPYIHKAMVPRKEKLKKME


What was measured:
[1] = biological target: T1, recombinant human lysophosphatidylcholine acyltransferase 3 (rhLPCAT3); assay: reversed-phase HPLC fluorescence assay of NBD-PC formation by purified rhLPCAT3; type: biochemical
[2] = substrate: CCCCC/C=C\C/C=C\C/C=C\C/C=C\CCCC(=O)SCCNC(=O)CCNC(=O)[C@H](O)C(C)(C)COP(=O)(O)OP(=O)(O)OC[C@H]1O[C@@H](n2cnc3c(N)ncnc32)[C@H](O)[C@@H]1OP(=O)(O)O; assay: bisubstrate kinetics (Km) of purified enzyme, reversed-phase HPLC with fluorescence detection; type: biochemical, Homo sapiens

| IC50 [1] | Molecule | Km [2] |
| --- | --- | --- |
| 174 ± 1.04 µM | CCCOC(=O)c1ccc(N2C(=O)C(Cl)=C(Cl)C2=O)cc1 [TSI-10] |  |
|  | recombinant human lysophosphatidylcholine acyltransferase 3 (rhLPCAT3) (Homo sapiens) (protein, human LPCAT3 (BC065194.1) with HRV 3C site and C-terminal Twin-strep-tag, expressed in Sf9 cells, purified in DDM) ASSAEGDEGTVVALAGVLQSGFQELSLNKLATSLGASEQALRLIISIFLGYPFALFYRHYLFYKETYLIHLFHTFTGLSIAYFNFGNQLYHSLLCIVLQFLILRLMGRTITAVLTTFCFQMAYLLAGYYYTATGNYDIKWTMPHCVLTLKLIGLAVDYFDGGKDQNSLSSEQQKYAIRGVPSLLEVAGFSYFYGAFLVGPQFSMNHYMKLVQGELIDIPGKIPNSIIPALKRLSLGLFYLVGYTLLSPHITEDYLLTEDYDNHPFWFRCMYMLIWGKFVLYKYVTCWLVTEGVCILTGLGFNGFEEKGKAKWDACANMKVWLFETNPRFTGTIASFNINTNAWVARYIFKRLKFLGNKELSQGLSLLFLALWHGLHSGYLVCFQMEFLIVIVERQAARLIQESPTLSKLAAITVLQPFYYLVQQTIHWLFMGYSMTAFCLFTWDKWLKVYKSIYFLGHIFFLSLLFILPYIHKAMVPRKEKLKKME | 11.03 ± 0.51 µM |
